Measurements as given in ChEMBL document CHEMBL5338719, “Recent advance on pleiotropic cholinesterase inhibitors bearing amyloid modulation efficacy” (Eur J Med Chem, 2022).
pIC50: −log10 of the molar value.

Legend:
[1] = target: T1, Amyloid-beta precursor protein (Homo sapiens, UniProt P05067); assay: Inhibition of amyloid beta 42 (unknown origin) aggregation at 25 uM relative to control
Acetylcholinesterase [2] = target: T2, Acetylcholinesterase (Electrophorus electricus, UniProt O42275); assay: Inhibition of electric eel AChE
T2 sequence (O42275 whole entry): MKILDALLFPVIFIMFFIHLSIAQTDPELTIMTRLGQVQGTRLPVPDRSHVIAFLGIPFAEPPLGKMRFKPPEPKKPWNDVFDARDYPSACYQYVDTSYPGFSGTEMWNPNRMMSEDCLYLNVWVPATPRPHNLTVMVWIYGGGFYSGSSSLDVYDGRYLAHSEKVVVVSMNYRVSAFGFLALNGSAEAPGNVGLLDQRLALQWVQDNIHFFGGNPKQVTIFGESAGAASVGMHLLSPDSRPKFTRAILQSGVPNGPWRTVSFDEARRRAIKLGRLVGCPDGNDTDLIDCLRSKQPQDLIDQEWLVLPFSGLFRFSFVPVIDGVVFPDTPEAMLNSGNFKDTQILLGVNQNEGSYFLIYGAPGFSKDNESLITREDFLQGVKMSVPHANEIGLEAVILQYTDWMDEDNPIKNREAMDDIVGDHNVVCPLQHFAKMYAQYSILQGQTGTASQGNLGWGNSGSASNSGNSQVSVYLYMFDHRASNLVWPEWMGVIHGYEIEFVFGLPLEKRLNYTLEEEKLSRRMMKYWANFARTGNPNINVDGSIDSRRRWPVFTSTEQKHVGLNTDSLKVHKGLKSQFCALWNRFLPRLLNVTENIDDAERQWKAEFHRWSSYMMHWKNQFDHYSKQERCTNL

Beta-secretase 1 [3] = target: T3, Beta-secretase 1 (Homo sapiens, UniProt P56817); assay: Inhibition of BACE1 (unknown origin)
T3 sequence (P56817 whole entry): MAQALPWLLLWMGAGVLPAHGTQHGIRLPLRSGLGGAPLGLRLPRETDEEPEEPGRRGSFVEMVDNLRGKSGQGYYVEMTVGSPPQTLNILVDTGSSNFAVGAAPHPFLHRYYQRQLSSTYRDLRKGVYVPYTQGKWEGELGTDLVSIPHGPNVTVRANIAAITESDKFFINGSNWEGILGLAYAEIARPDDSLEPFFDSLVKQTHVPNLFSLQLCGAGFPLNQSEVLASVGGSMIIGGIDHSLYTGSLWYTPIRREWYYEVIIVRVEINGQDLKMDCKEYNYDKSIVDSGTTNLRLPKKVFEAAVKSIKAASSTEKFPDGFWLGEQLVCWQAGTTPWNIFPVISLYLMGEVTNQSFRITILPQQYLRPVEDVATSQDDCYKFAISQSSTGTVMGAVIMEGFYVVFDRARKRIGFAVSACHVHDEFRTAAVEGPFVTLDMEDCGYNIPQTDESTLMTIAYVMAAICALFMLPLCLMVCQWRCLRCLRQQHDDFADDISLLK

Cholinesterase [4] = target: T4, Cholinesterase (Homo sapiens, UniProt P06276); assay: Inhibition of human BChE
T4 sequence (P06276 whole entry): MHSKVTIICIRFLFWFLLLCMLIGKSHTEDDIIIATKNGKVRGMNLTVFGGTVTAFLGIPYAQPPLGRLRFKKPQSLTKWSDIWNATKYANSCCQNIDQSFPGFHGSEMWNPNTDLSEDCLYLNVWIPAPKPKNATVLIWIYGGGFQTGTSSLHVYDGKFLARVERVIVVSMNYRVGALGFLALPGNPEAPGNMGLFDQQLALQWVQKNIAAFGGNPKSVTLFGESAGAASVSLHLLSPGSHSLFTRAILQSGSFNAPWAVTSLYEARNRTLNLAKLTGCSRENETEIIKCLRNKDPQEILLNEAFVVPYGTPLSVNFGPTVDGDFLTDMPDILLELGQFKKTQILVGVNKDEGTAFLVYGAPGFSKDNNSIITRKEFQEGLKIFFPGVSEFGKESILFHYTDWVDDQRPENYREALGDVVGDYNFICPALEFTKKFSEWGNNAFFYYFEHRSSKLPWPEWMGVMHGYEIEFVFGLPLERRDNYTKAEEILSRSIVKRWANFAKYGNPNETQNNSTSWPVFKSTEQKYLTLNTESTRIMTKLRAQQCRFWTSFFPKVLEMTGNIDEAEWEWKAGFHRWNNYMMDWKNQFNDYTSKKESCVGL

Acetylcholinesterase [5] = target: T5, Acetylcholinesterase (Homo sapiens, UniProt P22303); assay: Inhibition of human AChE
T5 sequence (P22303 whole entry): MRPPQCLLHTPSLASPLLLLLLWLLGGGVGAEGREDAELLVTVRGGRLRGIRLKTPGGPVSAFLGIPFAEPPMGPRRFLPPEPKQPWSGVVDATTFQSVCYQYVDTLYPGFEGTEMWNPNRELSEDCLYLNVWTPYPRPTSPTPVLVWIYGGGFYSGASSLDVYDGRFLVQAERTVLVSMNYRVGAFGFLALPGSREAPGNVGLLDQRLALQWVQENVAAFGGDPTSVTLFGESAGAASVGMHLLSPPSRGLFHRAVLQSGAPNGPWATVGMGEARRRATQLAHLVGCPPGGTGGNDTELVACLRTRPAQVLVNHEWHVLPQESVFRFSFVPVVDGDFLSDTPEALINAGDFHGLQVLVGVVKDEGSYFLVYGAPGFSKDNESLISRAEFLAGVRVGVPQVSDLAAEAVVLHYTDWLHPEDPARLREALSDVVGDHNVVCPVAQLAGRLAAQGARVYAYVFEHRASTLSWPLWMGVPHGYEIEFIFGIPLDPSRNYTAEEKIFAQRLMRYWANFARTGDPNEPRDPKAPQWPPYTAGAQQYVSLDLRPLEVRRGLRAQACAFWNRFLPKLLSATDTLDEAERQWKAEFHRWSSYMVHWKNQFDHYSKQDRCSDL

[6] = target: T1, Amyloid-beta precursor protein; assay: Inhibition of amyloid beta 42 (unknown origin) aggregation at 100 uM relative to control
[7] = target: Microtubule-associated protein tau (Homo sapiens) (UniProt P10636); assay: Inhibition of tau (306 to 336 residue) (unknown origin) aggregation at 50 uM incubated overnight by ThT fluorometric assay relative to control
Microtubule-associated protein tau (Homo sapiens), sequence (P10636 whole entry): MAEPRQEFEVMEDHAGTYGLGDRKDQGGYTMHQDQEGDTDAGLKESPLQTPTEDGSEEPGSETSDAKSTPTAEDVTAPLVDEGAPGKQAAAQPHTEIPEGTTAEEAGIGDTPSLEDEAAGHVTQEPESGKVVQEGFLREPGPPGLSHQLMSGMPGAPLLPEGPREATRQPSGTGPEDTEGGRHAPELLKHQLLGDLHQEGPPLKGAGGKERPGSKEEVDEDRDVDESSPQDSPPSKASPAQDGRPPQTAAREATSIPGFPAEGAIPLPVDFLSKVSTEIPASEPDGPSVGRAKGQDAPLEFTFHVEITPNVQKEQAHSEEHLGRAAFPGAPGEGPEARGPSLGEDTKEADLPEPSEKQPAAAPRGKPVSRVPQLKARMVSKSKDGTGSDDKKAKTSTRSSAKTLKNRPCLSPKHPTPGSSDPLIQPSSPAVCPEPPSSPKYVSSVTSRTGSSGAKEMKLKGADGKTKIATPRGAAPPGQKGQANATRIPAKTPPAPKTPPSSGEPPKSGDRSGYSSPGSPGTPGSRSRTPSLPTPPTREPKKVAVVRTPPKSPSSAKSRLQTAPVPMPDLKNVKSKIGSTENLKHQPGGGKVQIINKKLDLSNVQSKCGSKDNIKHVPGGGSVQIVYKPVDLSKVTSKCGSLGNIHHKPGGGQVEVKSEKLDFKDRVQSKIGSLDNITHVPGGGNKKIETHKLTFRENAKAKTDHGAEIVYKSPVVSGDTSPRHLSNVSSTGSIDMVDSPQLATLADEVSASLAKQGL

[8] = target: T1, Amyloid-beta precursor protein; assay: Inhibition of amyloid beta 1 to 42 (unknown origin) aggregation at 50 uM measured every 10 mins for 72 hrs by ThT fluorometric assay relative to control
[9] = target: T1, Amyloid-beta precursor protein; assay: Inhibition of amyloid beta 42 (unknown origin) aggregation at 10 uM for 24 hrs by ThT fluorescence assay relative to control
Cholinesterase [10] = target: T6, Cholinesterase (Equus caballus, UniProt P81908); assay: Inhibition of equine BChE incubated for 15 mins by Ellman's method
T6 sequence (P81908 whole entry): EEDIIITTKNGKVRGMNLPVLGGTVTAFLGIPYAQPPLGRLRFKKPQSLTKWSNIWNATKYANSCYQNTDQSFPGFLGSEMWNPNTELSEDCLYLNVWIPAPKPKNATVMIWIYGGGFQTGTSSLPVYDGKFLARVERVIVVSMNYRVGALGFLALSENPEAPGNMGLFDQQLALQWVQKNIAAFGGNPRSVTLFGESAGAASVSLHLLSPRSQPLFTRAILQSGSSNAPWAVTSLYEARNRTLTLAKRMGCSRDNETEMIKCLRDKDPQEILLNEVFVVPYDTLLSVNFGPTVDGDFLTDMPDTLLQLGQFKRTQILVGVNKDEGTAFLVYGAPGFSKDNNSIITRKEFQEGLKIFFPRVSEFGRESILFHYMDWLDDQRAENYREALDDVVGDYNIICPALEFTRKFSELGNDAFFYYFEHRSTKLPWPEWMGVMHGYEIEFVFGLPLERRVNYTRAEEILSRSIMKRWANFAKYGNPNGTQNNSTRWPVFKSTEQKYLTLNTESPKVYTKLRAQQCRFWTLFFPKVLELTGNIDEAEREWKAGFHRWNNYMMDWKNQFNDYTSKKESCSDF

[11] = target: T1, Amyloid-beta precursor protein; assay: Inhibition of amyloid beta 1 to 42 (unknown origin) aggregation at 10 uM for 24 hrs by ThT fluorometric assay relative to control
Acetylcholinesterase [12] = target: T5, Acetylcholinesterase; assay: Inhibition of human erythrocyte AChE using […] as substrate preincubated for 5 mins followed by substrate addition measured Ellmans method
[13] = target: T1, Amyloid-beta precursor protein; assay: Inhibition of amyloid beta 42 (unknown origin) aggregation at 50 uM by Thioflavin T-based fluorescence assay relative to control
Cholinesterase [14] = target: T6, Cholinesterase; assay: Inhibition of equine BChE using BTChI as substrate
Acetylcholinesterase [15] = target: T2, Acetylcholinesterase; assay: Inhibition of electric eel AChE using ATChI as substrate
Beta-secretase 1 [16] = target: T3, Beta-secretase 1; assay: Inhibition of BACE1 (unknown origin) at 20 uM by fluorescence assay relative to control
[17] = target: T1, Amyloid-beta precursor protein; assay: Inhibition of amyloid beta 42 (unknown origin) fibrillization at 44 uM for 48 hrs by ThT fluorescence assay relative to control
Acetylcholinesterase [18] = target: T5, Acetylcholinesterase; assay: Inhibition of human recombinant AChE expressed in HEK293 cells using acetylthiocholine as substrate incubated for 120 mins by Ellman's method
[19] = target: T1, Amyloid-beta precursor protein; assay: Inhibition of amyloid beta 42 (unknown origin) aggregation at 1 mM for 12 hrs relative to control
Cholinesterase [20] = target: T4, Cholinesterase; assay: Inhibition of human recombinant BChE expressed in HEK293 cells using butyrylthiocholine as substrate incubated for 120 mins by Ellman's method
[21] = target: T1, Amyloid-beta precursor protein; assay: Inhibition of amyloid beta 42 (unknown origin) fibrillization at 44 uM relative to control
Acetylcholinesterase [22] = target: T2, Acetylcholinesterase; assay: Inhibition of electric eel AChE by Ellman's method
Beta-secretase 1 [23] = target: T3, Beta-secretase 1; assay: Inhibition of BACE1 (unknown origin) at 50 uM by FRET-based enzyme assay relative to control
[24] = target: T1, Amyloid-beta precursor protein; assay: Inhibition of amyloid beta 42 (unknown origin) aggregation at 50 uM for 24 hrs by thioflavin T fluorescence method relative to control
Acetylcholinesterase [25] = target: T5, Acetylcholinesterase; assay: Inhibition of human recombinant AChE by spectrophotometer based Ellman's method
[26] = target: T1, Amyloid-beta precursor protein; assay: Inhibition of amyloid beta (25 to 35) (unknown origin) aggregation at 10 uM relative to control
Cholinesterase [27] = target: T6, Cholinesterase; assay: Inhibition of equine BChE
[28] = target: T1, Amyloid-beta precursor protein; assay: Inhibition of amyloid beta 42 (unknown origin) self aggregation at 80 uM incubated for 24 hrs by fluoroscence emission relative to control
Acetylcholinesterase [29] = target: Acetylcholinesterase (Torpedo californica, UniProt P04058); assay: Inhibition of pacific electric ray AChE incubated for 15 mins; set-up: species or system Tetronarce californica
Acetylcholinesterase (Torpedo californica, UniProt P04058), sequence (P04058 whole entry): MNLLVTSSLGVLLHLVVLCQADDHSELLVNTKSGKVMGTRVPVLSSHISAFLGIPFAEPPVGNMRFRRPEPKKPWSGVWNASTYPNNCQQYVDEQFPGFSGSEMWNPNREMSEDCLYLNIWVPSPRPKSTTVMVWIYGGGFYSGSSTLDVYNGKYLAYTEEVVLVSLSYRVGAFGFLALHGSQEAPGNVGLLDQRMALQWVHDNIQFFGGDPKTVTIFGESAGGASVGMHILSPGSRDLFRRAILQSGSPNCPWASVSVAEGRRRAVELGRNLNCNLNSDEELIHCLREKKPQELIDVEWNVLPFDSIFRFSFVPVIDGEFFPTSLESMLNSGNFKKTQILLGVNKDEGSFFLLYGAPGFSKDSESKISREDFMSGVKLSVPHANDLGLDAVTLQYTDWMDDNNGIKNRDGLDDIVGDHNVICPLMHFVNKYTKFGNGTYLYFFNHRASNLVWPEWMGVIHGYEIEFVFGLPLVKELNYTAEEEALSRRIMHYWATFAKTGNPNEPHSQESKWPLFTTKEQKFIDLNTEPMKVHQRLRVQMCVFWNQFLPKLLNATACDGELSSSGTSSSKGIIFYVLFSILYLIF

[30] = target: T1, Amyloid-beta precursor protein; assay: Inhibition of amyloid beta 1 to 42 (unknown origin) self aggregation at 50 uM for 24 hrs by ThT fluorometric assay relative to control
Cholinesterase [31] = target: T4, Cholinesterase; assay: Inhibition of human […] BChE using BTC iodide as substrate preincubated for 5 mins followed by substrate addition measured Ellmans method
Acetylcholinesterase [32] = target: T5, Acetylcholinesterase; assay: Inhibition of human erythrocyte AChE using ATC iodide as substrate preincubated for 5 mins followed by substrate addition measured Ellmans method

T1 sequence (P05067 whole entry): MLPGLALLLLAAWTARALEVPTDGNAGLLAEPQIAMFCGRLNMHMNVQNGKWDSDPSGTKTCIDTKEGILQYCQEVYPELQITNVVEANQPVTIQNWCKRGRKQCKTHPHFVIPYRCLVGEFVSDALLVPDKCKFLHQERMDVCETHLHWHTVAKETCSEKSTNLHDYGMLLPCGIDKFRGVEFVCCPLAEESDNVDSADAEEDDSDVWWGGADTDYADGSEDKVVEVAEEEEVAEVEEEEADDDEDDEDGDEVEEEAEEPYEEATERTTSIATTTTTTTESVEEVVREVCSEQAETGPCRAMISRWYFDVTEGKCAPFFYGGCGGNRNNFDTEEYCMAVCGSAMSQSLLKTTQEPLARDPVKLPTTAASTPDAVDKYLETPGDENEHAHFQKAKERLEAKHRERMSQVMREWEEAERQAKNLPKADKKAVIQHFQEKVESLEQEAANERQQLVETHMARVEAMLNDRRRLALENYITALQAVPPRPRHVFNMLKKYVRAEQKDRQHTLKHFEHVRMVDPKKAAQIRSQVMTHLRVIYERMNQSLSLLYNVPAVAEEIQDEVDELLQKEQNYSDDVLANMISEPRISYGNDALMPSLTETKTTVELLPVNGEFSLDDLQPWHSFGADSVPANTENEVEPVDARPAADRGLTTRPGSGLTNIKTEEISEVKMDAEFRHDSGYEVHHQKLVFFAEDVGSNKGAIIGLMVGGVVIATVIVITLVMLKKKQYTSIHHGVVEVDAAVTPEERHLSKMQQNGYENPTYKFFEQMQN

COC(=O)C(C)c1ccc(-c2ccc(C(=O)/C=C/c3ccc(CN4CCCC4)c(O)c3)cc2)c(F)c1 (stereo not given) showed an inhibition [1] of 70.7% and a pIC50 (Acetylcholinesterase [2]) of 5.15.
For N=c1oc2ccccc2cc1C(=O)Nc1cc(Br)ccc1N1CCN(Cc2ccc(F)cc2)CC1, the pIC50 (Beta-secretase 1 [3]) was 5.20 and the pIC50 (Cholinesterase [4]) was 4.98.
COC(=O)c1cc(C(=O)c2ccc(OC)cc2)n2ccc(CCCc3cc[n+](C)cc3)cc12 was tested, and the pIC50 (Acetylcholinesterase [5]) was 5.48, the pIC50 (Cholinesterase [4]) was 4.41 and the inhibition [6] was 55%.
For Clc1ccc2c(NCCCCCN3c4ccccc4Sc4ccccc43)c3c(nc2c1)CCCC3, the pIC50 (Acetylcholinesterase [5]) was 8.10, the inhibition [7] was 50.5% and the pIC50 (Cholinesterase [4]) was 6.72. For the same compound, the inhibition [8] was 74.1%.
CN(C)/C=C/C(=O)c1cc2ccc(OCc3cn(Cc4ccc(F)c(F)c4)nn3)cc2oc1=O showed an inhibition [9] of 32.6% and a pIC50 (Cholinesterase [10]) of 4.66.
Compound O=S(=O)(NCC1CCN(Cc2ccccc2)CC1)c1ccc(-c2ccccc2)cc1 has an inhibition [11] of 60.7%.
O=c1nc2sc3ccccc3n2c2ncccc12 was tested, and the pIC50 (Acetylcholinesterase [12]) was 5.56 and the inhibition [13] was 30.8%.
With CCCOc1ccc2c(C)cc(=S)oc2c1OCCC the pIC50 (Cholinesterase [14]) was 4.77, the pIC50 (Acetylcholinesterase [15]) was 5.25 and the inhibition (Beta-secretase 1 [16]) was 57.2%. It also gave an inhibition [17] of 76.7%.
With O=C(C[n+]1ccc2ccccc2c1)Nc1ccccc1Br the pIC50 (Acetylcholinesterase [18]) was 4.89, the inhibition [19] was 18% and the pIC50 (Cholinesterase [20]) was 4.92.
With COC(=O)[C@H]1[C@H]2C[C@@H]3c4[nH]c5cc(OC)ccc5c4CCN3C[C@H]2C[C@@H](OC(=O)c2cc(OC)c(OC)c(OC)c2)[C@@H]1OC [RESERPINE] the inhibition [21] was 68%, the pIC50 (Acetylcholinesterase [5]) was 5.77 and the pIC50 (Cholinesterase [4]) was 5.55.
O=C(Nc1ccc(Oc2ccc3ccc(=O)oc3c2)cc1)c1cc(-c2cccc([N+](=O)[O-])c2)on1 gave a pIC50 (Acetylcholinesterase [22]) of 5.91 and an inhibition (Beta-secretase 1 [23]) of 48.5%.
For CC1=C(NC2CCN(Cc3ccccc3)CC2)C(=O)c2ccccc2C1=O, the inhibition [24] was 52% and the pIC50 (Acetylcholinesterase [25]) was 4.32.
Work on O=C(NCCNc1c2c(nc3cc(Cl)ccc13)CCCC2)c1cc(-c2ccc(Cl)cc2)on1 yielded a pIC50 (Beta-secretase 1 [3]) of 5.78, an inhibition [26] of 79.4% and a pIC50 (Acetylcholinesterase [2]) of 7.28. For the same compound, the pIC50 (Cholinesterase [27]) was 6.43.
For COc1ccc(C(=O)CCC(=O)NCCCNc2c3c(nc4ccccc24)CCCC3)c2ccccc12, the inhibition [28] was 70.5% and the pIC50 (Acetylcholinesterase [29]) was 6.92.
For CCOC(=O)C1=C(C)N(CCC2CCN(Cc3ccccc3)CC2)C(=O)NC1c1coc2c(Cl)cc(Cl)cc2c1=O (stereo not given), the inhibition [30] was 63.6%, the inhibition [7] was 73.7% and the pIC50 (Cholinesterase [31]) was 4.76. The pIC50 (Acetylcholinesterase [32]) was 7.22.
